Values of other authors as cited in patent US6630442B1, “Reparatives for chemosurgery and laser (thermal) therapy” (priority 1997, dated 2003).

Columns and labels:
cells = conditions: in vitro
granulating wounds = conditions: applied to granulating wounds
[1] = system: partial thickness burns or split thickness epidermal burns; conditions: mixed with topical creams, applied twice daily
[2] = system: lipid peroxidation in tissues; conditions: tissues of vitamin E deficient chicks
[3] = system: acute damage to the skin by sunburn induced by ultraviolet irradiation
[4] = system: skin damage by ultraviolet irradiation

EGF: Epidermal growth factor is a 53 amino acid polypeptide which stimulates messenger RNA, DNA and protein synthesis (NSDSECPLSHDGYCLHDGVCMYIEALDKYACNCVVGYIGERCQYRDLKWWELR; Epidermal growth factor; UniProt P01133 971-1023, looked up)
exposure time needed to yield a mitogenic signal (cells): about five hours
concentrations of wound DNA and collagen hydroxyproline (granulating wounds): increase both the concentrations of DNA associated with cutaneous injury and of collagen hydroxyproline
healing process of wounds [1]: highly significant increase in the healing process

(−)epigallo catechin gallate [EGCG]
hydrogen peroxide formation (human leukocytes): inhibits hydrogen peroxide formation

C[Se]CC[C@H](N)C(=O)O [selenomethionine]
in vivo lipid peroxidation [2]: inhibits in vivo lipid peroxidation
number of CD4+ T-cells in the reticular dermis of psoriatic lesions (psoriasis; human, in vivo): statistically significant increase
skin levels of selenium dependent glutathione peroxidase (psoriasis; normal and psoriatic skin): unchanged
increase in blood selenium post treatment (psoriasis; psoriasis patients with normal pretreatment selenium blood levels): 40%
protection against acute UV damage to the skin, measured by the minimal erythema dose ([3]; eight women, topical lotion 0.002%, 0.02% and 0.05%, solar ultraviolet simulator): effective in protecting against acute UV damage to the skin
plasma levels of selenium ([3]; volunteers after topical selenomethionine): remained unchanged
skin damage by ultraviolet irradiation (inflammation and pigmentation) ([4]; mice treated with selenomethionine): significantly less skin damage by ultraviolet irradiation
onset and incidence of skin cancers ([4]; mice treated with selenomethionine, UV irradiation): later onset and lesser incidence of skin cancers
selenium toxicity ([4]; mouse, in vivo, po): no evidence of selenium toxicity
concentration of selenium in skin in areas of topical application ([4]; topical lotion versus comparable oral doses): greater than those of the experimental animals given comparable oral doses
